Data: patent publication US20260028340A1 (Supernus Pharmaceuticals, Inc., priority 2023, published 2026)

Experiment: Pharmacokinetic data in CD-1 mice after oral administration
Assay type: in vivo
Settings: 10 mg/kg molar equivalent to Cmpd. A (nominal), serum, analyte: A
Procedure: Pharmacokinetic (PK) data was generated using twelve CD-1 mice treated with oral administration of the compound with a dose volume of 10 mg/kg (a molar equivalent to 5-(4-chlorophenyl)-2,3-dihydroimidazo[1,2-b]isoindol-5-ol (“Compound A,” “Cmpd. A,” or “A”)), and a nominal strength of 1 mg/mL. The serum was analyzed in triplicate with 200 mM K2EDTA anticoagulant.

Compound | PK parameters / level of analyte A (Cmpd. A) after dosing the derivative
CC(C)(C(=O)N1CCN=C1c1ccccc1C(=O)c1ccc(Cl)cc1)C(=O)N1CCN=C1c1ccccc1C(=O)c1ccc(Cl)cc1 [III-1, 1,3-bis(2-(2-(4-chlorobenzoyl)phenyl)-4,5-dihydro-1H-imidazol-1-yl)-2,2-dimethylpropane-1,3-dione] | NC (BLQ at all the time points)
CC(C)C(NC(=O)OC(C)(C)C)C(=O)N1CCN=C1c1ccccc1C(=O)c1ccc(Cl)cc1 (stereo not drawn) | NC (BLQ at all the time points)
O=C(c1ccc(Cl)cc1)c1ccccc1C1=NCCN1C(=O)c1ccc2c(c1)OCO2 [II-4, benzo[d][1.3]dioxol-5-yl(2-(2-(4-chlorobenzoyl)phenyl)-4,5-dihydro-1H-imidazol-1-yl) methanone] | NC (BLQ at all the time points)

Same assay, conditions: mouse, 10 mg/kg molar equivalent to Cmpd. A (nominal), serum, analyte: dosed derivative (DV)

Compound | AUC(0-inf) [ng·h/mL] | AUC(0-t) [ng·h/mL] | Cmax [ng/mL] | Tmax [min] | half-life [min]
CN1CCN(C(=O)N2CCN=C2c2ccccc2C(=O)c2ccc(Cl)cc2)CC1 [II-6, (2-(2-(4-chlorobenzoyl)phenyl)-4,5-dihydro-1H-imidazol-1-yl) (4-methylpiperazin-1-yl) methanone] | 548 | 531 | 752 | 15 | 51
COCCOC1(c2ccc(Cl)cc2)c2ccccc2C2=NCCN21 (stereo not drawn) [Compound I-4, 5-(4-chlorophenyl)-5-(2-methoxyethoxy)-2,5-dihydro-3H-imidazo[2,1-a]isoindole] | 586 | 568 | 475 | 15 | 108
CC(C)(C(=O)N1CCN=C1c1ccccc1C(=O)c1ccc(Cl)cc1)C(=O)N1CCN=C1c1ccccc1C(=O)c1ccc(Cl)cc1 [III-1, 1,3-bis(2-(2-(4-chlorobenzoyl)phenyl)-4,5-dihydro-1H-imidazol-1-yl)-2,2-dimethylpropane-1,3-dione] | 369 | 366 | 238 | 15 | 72
CC(C)C(NC(=O)OC(C)(C)C)C(=O)N1CCN=C1c1ccccc1C(=O)c1ccc(Cl)cc1 (stereo not drawn) |  | 56.5 | 61.2 | 15 | 
CC(C)COC1(c2ccc(Cl)cc2)c2ccccc2C2=NCCN21 (stereo not drawn) [Compound I-10, 5-(4-chlorophenyl)-5-isobutoxy-2,5-dihydro-3H-imidazo[2,1-a]isoindole] | 112 | 94.6 | 82.5 | 15 | 97.8
CCOC1(c2ccc(Cl)cc2)c2ccccc2C2=NCCN21 (stereo not drawn) [Compound I-8, 5-(4-chlorophenyl)-5-ethoxy-2,5-dihydro-3H-imidazo[2,1-a]isoindole] | 72.4 | 48.5 | 32 | 30 | 127
COc1ccc(COC2(c3ccc(Cl)cc3)c3ccccc3C3=NCCN32)cc1 (stereo not drawn) [Compound I-2, 5-(4-chlorophenyl)-5-((4-methoxybenzyl)oxy)-2,5-dihydro-3H-imidazo[2,1-a]isoindole] | 268 | 260 | 234 | 15 | 108
Clc1ccc(C2(OCc3ccc4c(c3)OCO4)c3ccccc3C3=NCCN32)cc1 (stereo not drawn) [Compound I-7, 5-(benzo[d][1.3]dioxol-5-ylmethoxy)-5-(4-chlorophenyl)-2,5-dihydro-3H-imidazo[2,1-a]isoindole] | 358 | 307 | 211 | 15 | 85.2
Clc1ccc(C2(OCc3ccccc3)c3ccccc3C3=NCCN32)cc1 (stereo not drawn) [Compound I-1, 5-(benzyloxy)-5-(4-chlorophenyl)-2,5-dihydro-3H-imidazo[2,1-a]isoindole] | 141 | 137 | 68.2 | 15 | 96
CC(C)=CCC/C(C)=C/CC/C(C)=C/COC1(c2ccc(Cl)cc2)c2ccccc2C2=NCCN21 (stereo not drawn) [Compound I-13, 5-(4-chlorophenyl)-5-(((2E,6E)-3,7,11-trimethyldodeca-2,6,10-trien-1-yl)oxy)-2,5-dihydro-3H-imidazo[2,1-a]isoindole] |  | 337 | 201 | 30 | 
O=C(c1ccc(Cl)cc1)c1ccccc1C1=NCCN1C(=O)c1ccccc1 [II-1, (2-(1-benzoyl-4,5-dihydro-1H-imidazol-2-yl)phenyl) (4-chlorophenyl) methanone] | 21.8 | 19.8 | 43 | 15 | 100
CC(C)=CCC/C(C)=C/COC1(c2ccc(Cl)cc2)c2ccccc2C2=NCCN21 (stereo not drawn) [Compound I-11, (E)-5-(4-chlorophenyl)-5-((3,7-dimethylocta-2,6-dien-1-yl)oxy)-2,5-dihydro-3H-imidazo[2,1-a]isoindole] | 44 | 39.7 | 27.7 | 15 | 69.6
O=C(c1ccc(Cl)cc1)c1ccccc1C1=NCCN1C(=O)c1ccc2c(c1)OCO2 [II-4, benzo[d][1.3]dioxol-5-yl(2-(2-(4-chlorobenzoyl)phenyl)-4,5-dihydro-1H-imidazol-1-yl) methanone] | 238 | 236 | 50.3 | 15 | 72
Cc1ccc(C(=O)N2CCN=C2c2ccccc2C(=O)c2ccc(Cl)cc2)cc1 [II-3, (2-(2-(4-chlorobenzoyl)phenyl)-4,5-dihydro-1H-imidazol-1-yl) (p-tolyl) methanone] | 182 | 163 | 81.6 | 15 | 132
COC1(c2ccc(Cl)cc2)c2ccccc2C2=NCCN21 (stereo not drawn) [Compound I-6, 5-(4-chlorophenyl)-5-methoxy-2,5-dihydro-3H-imidazo[2,1-a]isoindole] | 66.6 | 64.7 | 72 | 30 | 51
COCCOCCOCCOC1(c2ccc(Cl)cc2)c2ccccc2C2=NCCN21 (stereo not drawn) [Compound I-12, 5-(4-chlorophenyl)-5-(2-(2-(2-methoxyethoxy)ethoxy)ethoxy)-2,5-dihydro-3H-imidazo[2,1-a]isoindole] |  | 68.9 | 67.6 | 30 | 
COc1ccc(C(=O)N2CCN=C2c2ccccc2C(=O)c2ccc(Cl)cc2)cc1 [II-2, (2-(2-(4-chlorobenzoyl)phenyl)-4,5-dihydro-1H-imidazol-1-yl) (4-methoxyphenyl) methanone] | 624 | 611 | 170 | 30 | 81.6
CC(C)=CCOC1(c2ccc(Cl)cc2)c2ccccc2C2=NCCN21 (stereo not drawn) [Compound I-9, 5-(4-chlorophenyl)-5-((3-methylbut-2-en-1-yl)oxy)-2,5-dihydro-3H-imidazo[2,1-a]isoindole] | 59.8 | 55.1 | 124 | 15 | 85.2
C=CCOC1(c2ccc(Cl)cc2)c2ccccc2C2=NCCN21 (stereo not drawn) [Compound I-3, 5-(allyloxy)-5-(4-chlorophenyl)-2,5-dihydro-3H-imidazo[2,1-a]isoindole] | 88.9 | 73.7 | 52.9 | 30 | 102

Experiment: as above
Assay type: in vivo
Settings: mouse, serum, Table 7: CD-1 mice, nominal dose 5.10 mg/kg Cmpd. A or 6.57-8.40 mg/kg DV salt, analyte: dosed derivative (DV)

Compound | AUC(0-inf) [ng·h/mL] | AUC(0-t) [ng·h/mL] | Cmax [ng/mL] | Tmax [min] | half-life [min]
Clc1ccc(COC2(c3ccc(Cl)cc3)c3ccccc3C3=NCCN32)cc1 (stereo not drawn) [Compound I-16, 5-((4-chlorobenzyl)oxy)-5-(4-chlorophenyl)-2,5-dihydro-3H-imidazo[2,1-a]isoindole] | 224 | 174 | 53.3 | 35 | 194
COc1ccc(COC2(c3ccc(Cl)cc3)c3ccccc3C3=NCCN32)cc1OC (stereo not drawn) [Compound I-15, 5-(4-chlorophenyl)-5-((3,4-dimethoxybenzyl)oxy)-2,5-dihydro-3H-imidazo[2,1-a]isoindole] | 16 | 12.7 | 17.8 | 20 | 29.8
